Test results: US20240293447A1, “Materials and Methods for Prevention and Treatment of Diarrhea and Inflammation in the Gastrointestinal Tract” (University of Florida Research Foundation, Inc., priority 2012, published 2024)

Test system: colitis in mice
Assay: Colitis in mice (dextran sulfate sodium (DSS)-induced colitis) after CaSR-activating nutrients
Type: in vivo
Details: three-to-six-week-old mice received CaSR-activating nutrients (calcium, spermine, tryptophan, cinacalcet); figure legends only
Protocol: Briefly, three-to-six-week-old, pre-pubertal rats and mice (WT v. villin/cre-floxed CaSR) received antigens or CaSR-activating nutrients (calcium, spermine, tryptophan, and cinacalcet). After treatment, mice and rats were sacrificed, and epithelial barrier, cytokine expression, dendritic cell, T cell, and B cell activation, and response to inflammatory stress were determined (FIG. 2).

`C[C@@H](NCCCc1cccc(C(F)(F)F)c1)c1cccc2ccccc12` [cinacalcet] was tested, and the effect on colitis was “can be used to treat colitis”.
